From article PMC10961402, “Safety, tolerability, pharmacokinetics and pharmacokinetic-pharmacodynamic modeling of cetagliptin in patients with type 2 diabetes mellitus” (Frontiers in Endocrinology, 2024)

Columns and labels:
[1] = Plasma pharmacokinetics after single and multiple oral doses (non-compartmental analysis); assay type: in vivo, human; settings: patients with T2DM; for Tmax,ss / Tmax: median (range)
Method: This was a single-center, randomized, double-blind, placebo and positive-controlled, single and multiple oral-dose study. A total of 32 Chinese adults diagnosed with T2DM were recruited for this study and allocated into two dosage groups: 50 mg and 100 mg, each consisting of 16 participants. […] The positive control was designed as open label. […] Subjects underwent medication randomization on day -1, and were assigned the corresponding investigational products. They were orally administered to the drug once every morning on fasting condition for 14 consecutive days. […] After finished the dosing, another OGTT was performed on day 15. Blood samples were collected at designated time points for the analysis of PK/PD and exploratory indicators. Subjects were discharged after completion of the safety assessments on day 19. […] PK parameters were calculated using non-compartmental analysis with Phoenix WinNonlin (version 8.1, Certara, Co., Princeton, NJ, United States). Peak plasma concentration after administration (Cmax) and time to reach Cmax (Tmax) were obtained directly from the observed data, elimination half-life (t1/2) was calculated as ln2/λz using the best fit mode, where λz was the terminal elimination rate constant. Area under the plasma concentration-time curve from zero to the last measurable concentration (AUC0-t) was estimated using the linear trapezoidal method and AUC from zero to infinity (AUC0-∞) was calculated as AUC0-t+Ct/λz, where Ct was the last measured concentration. […] Apparent total plasma clearance after non-intravenous (CL/F) and apparent volume of distribution in terminal phase after non-intravenous (Vz/F) were calculated as Dose/AUC0-∞ and CL/λz, respectively.

plasma DPP-4 activity = molecular target: T1, plasma DPP-4 activity (Homo sapiens, UniProt P27487); assay: Emax model of plasma concentration vs DPP-4 inhibition; assay type: in vivo; settings: patients with T2DM
T1 construct: The plasma DPP-4 activity was determined using a fluorescent method with the substrate Gly-Pro-7-amide-4-methylcoumarin; from tissue; host or cells: human plasma (K2-EDTA blood from T2DM patients)

[2] = 50 mg oral once daily, listed as cetagliptin
[3] = 100 mg oral once daily, listed as cetagliptin

T1 sequence (P27487 39-766 limits assumed): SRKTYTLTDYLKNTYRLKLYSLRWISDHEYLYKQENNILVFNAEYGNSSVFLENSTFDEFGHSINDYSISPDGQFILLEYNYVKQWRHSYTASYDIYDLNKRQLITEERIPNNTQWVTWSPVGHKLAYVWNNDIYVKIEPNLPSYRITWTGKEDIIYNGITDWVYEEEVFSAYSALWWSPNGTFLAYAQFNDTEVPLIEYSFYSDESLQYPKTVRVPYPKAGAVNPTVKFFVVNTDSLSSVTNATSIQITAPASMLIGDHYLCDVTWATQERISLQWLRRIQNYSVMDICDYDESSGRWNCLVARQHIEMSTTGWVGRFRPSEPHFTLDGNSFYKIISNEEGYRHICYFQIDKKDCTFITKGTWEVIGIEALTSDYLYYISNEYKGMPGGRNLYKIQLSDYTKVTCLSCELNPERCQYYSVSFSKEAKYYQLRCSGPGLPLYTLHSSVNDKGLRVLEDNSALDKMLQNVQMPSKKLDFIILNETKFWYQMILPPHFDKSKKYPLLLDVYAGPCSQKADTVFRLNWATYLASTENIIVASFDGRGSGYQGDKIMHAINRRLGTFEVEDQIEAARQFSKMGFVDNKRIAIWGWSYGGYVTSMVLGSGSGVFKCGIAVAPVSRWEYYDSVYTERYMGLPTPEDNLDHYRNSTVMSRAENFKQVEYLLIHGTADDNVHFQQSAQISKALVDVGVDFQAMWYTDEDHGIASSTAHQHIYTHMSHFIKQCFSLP

- RAUC (accumulation ratio of AUC0-24h, day 14/day 1) ([1]; 50 mg oral once daily): 2.13 ± 0.225
- RCmax (accumulation ratio of Cmax, day 14/day 1) ([1]; 50 mg oral once daily): 2.01 ± 0.417
- AUC0-24h ([1]; 50 mg oral once daily, day 14): 1530 ± 274 ng·h/mL
- AUC0-∞ ([1]; 50 mg oral once daily, day 14): 2710 ± 577 ng·h/mL
- AUC(0-t) ([1]; 50 mg oral once daily, day 14): 2510 ± 512 ng·h/mL
- CLss/F ([1]; 50 mg oral once daily, day 14): 33.6 ± 5.86 L/h
- Cavg ([1]; 50 mg oral once daily, day 14): 63.9 ± 11.4 ng/mL
- Cmax,ss ([1]; 50 mg oral once daily, day 14): 162 ± 58.1 ng/mL
- Vz,ss/F ([1]; 50 mg oral once daily, day 14): 2010 ± 610 L
- t1/2 ([1]; 50 mg oral once daily, day 14): 41.9 ± 11.0 h
- CLss/F ([1]; 50 mg oral once daily, day 14, listed as cetagliptin): 33.6 L/h
- Tmax,ss ([1]; 50 mg oral once daily, day 14): 1.00 (0.500-5.00) h
- RAUC (accumulation ratio of AUC0-24h, day 14/day 1) [1, 2]: 2.13
- RCmax (accumulation ratio of Cmax, day 14/day 1) [1, 2]: 2.01
- AUC0-24h ([1]; 50 mg oral, day 1): 717 ± 86.0 ng·h/mL
- Cmax ([1]; 50 mg oral, day 1): 80.5 ± 23.3 ng/mL
- Tmax ([1]; 50 mg oral, day 1): 2.00 (1.00-4.00) h
- RAUC (accumulation ratio of AUC0-24h, day 14/day 1) ([1]; 100 mg oral once daily): 1.75 ± 0.305
- RCmax (accumulation ratio of Cmax, day 14/day 1) ([1]; 100 mg oral once daily): 1.49 ± 0.542
- AUC0-24h ([1]; 100 mg oral once daily, day 14): 3120 ± 263 ng·h/mL
- AUC0-∞ ([1]; 100 mg oral once daily, day 14): 4780 ± 361 ng·h/mL
- AUC(0-t) ([1]; 100 mg oral once daily, day 14): 4580 ± 356 ng·h/mL
- CLss/F ([1]; 100 mg oral once daily, day 14): 32.2 ± 2.57 L/h
- Cavg ([1]; 100 mg oral once daily, day 14): 130 ± 11.0 ng/mL
- Cmax,ss ([1]; 100 mg oral once daily, day 14): 300 ± 46.9 ng/mL
- Vz,ss/F ([1]; 100 mg oral once daily, day 14): 1640 ± 628 L
- t1/2 ([1]; 100 mg oral once daily, day 14): 34.9 ± 12.3 h
- CLss/F ([1]; 100 mg oral once daily, day 14, listed as cetagliptin): 32.2 L/h
- Tmax,ss ([1]; 100 mg oral once daily, day 14): 1.00 (0.500-3.00) h
- RAUC (accumulation ratio of AUC0-24h, day 14/day 1) [1, 3]: 1.75
- RCmax (accumulation ratio of Cmax, day 14/day 1) [1, 3]: 1.49
- AUC0-24h ([1]; 100 mg oral, day 1): 1830 ± 347 ng·h/mL
- Cmax ([1]; 100 mg oral, day 1): 219 ± 72.3 ng/mL
- Tmax ([1]; 100 mg oral, day 1): 1.00 (1.00-3.00) h
- mean t1/2 (half-life) ([1]; multiple oral doses, range over 50 mg and 100 mg groups): 34.9 to 41.9 h
- time of daily dosing after which steady-state conditions were reached ([1]; once daily dosing, trough concentrations days 7, 10, 14): 1 week
- EC50 (plasma concentration producing half the maximum DPP-4 inhibition) (plasma DPP-4 activity; Emax model): 5.37 ng/mL
- Emax (maximum DPP-4 inhibition, Emax model) (plasma DPP-4 activity; plasma concentration vs DPP-4 inhibition): 92.47%
SMILES: C[C@@H]1c2cnc(C(F)(F)F)n2CCN1C(=O)C[C@H](N)Cc1cc(F)c(F)cc1F.O=P(O)(O)O [Cetagliptin, cetagliptin]
